Test system: ALK-positive or ROS1-positive advanced non-small cell lung cancer
Test: Phase I clinical trial, dose escalation and expansion phases: efficacy (RECIST 1.1)
Assay type: in vivo, human
Settings: systemic
Method: The anti-tumor efficacy is evaluated according to RECIST version 1.1. For patients initially evaluated as having a complete response (CR) or partial response (PR), efficacy should be confirmed at least 4 weeks later. In the patients with asymptomatic central nervous system (CNS) metastases, in addition to evaluating 5 extracranial target lesions, up to 5 intracranial target lesions will also be evaluated. The specific indicators are as follows:
"CR" is defined as the disappearance of all target lesions, and the diameters of the short axis of all the pathological lymph nodes (whether target or non-target lymph nodes) must be reduced to 10 mm or less.
"PR" is defined as a reduction of at least 30% in the total diameter of the target lesions, with the total diameter of the baseline as a reference value.
"PD" is defined as an increase of at least 20% in the total diameter of the target lesions, using the minimum total diameter in the study as a reference value (this value may include the total diameter of the baseline). In addition, the absolute value of the total diameter must increase by at least 5 mm (the appearance of one or more new lesions is also considered as progressive disease).
"SD" is defined as a state in which the reduction in target lesions is insufficient to achieve partial response and the increase is insufficient to achieve progressive disease.
"ORR" includes CR and PR, and is defined as the proportion of patients who achieve complete response or partial response.
"IC-ORR" includes CR or PR for confirmed intracranial lesions, and is defined as the proportion of the patients with complete response or partial response of intracranial lesions among the patients with intracranial lesions.
"DCR" is defined as the proportion of the patients who achieve response (PR+CR) and stable disease (SD) after a treatment.
"IC-DCR" is defined as the proportion of the patients who achieve intracranial response (PR+CR), intracranial stable disease (SD), and […] after a treatment among the patients with intracranial lesions.
"DOR" is defined as the time from the first assessment of CR or PR to progressive disease or death, and is only applicable to the patients who achieve response.
"IC-DOR" is defined as the time from the first assessment of intracranial CR or intracranial PR to progressive disease or death, and is only applicable to the patients whose intracranial lesions achieve response.
"TTR" is defined as the time from patient enrollment (first dose of investigational drug) to tumor response (CR/PR), based on the patients with objective response.
"IC-TTR" is defined as the time from patient enrollment (first dose of investigational drug) to intracranial tumor response (IC-CR/PR), based on the patients with intracranial objective response.
Approximately eight dose groups in total were set in the dose escalation phase, which were 5 (the starting dose), 10, 20, 40, 60, 80, 100, and 125 mg, respectively. Subjects in all the dose groups received a single dose on day 1 (D1), and the blood samples were collected for pharmacokinetic (PK) assay and tolerability observation. If no grade 2 or a higher-level adverse event related to the investigational drug occurred during the single-dose period (5 to 7 days) (if such events occurred, dose adjustments would be made based on the toxicity according to the protocol), the subject entered the multiple-dose period (i.e., treatment period) 5 to 7 days later (7 days after the first administration in the first dose group (i.e., starting the multiple-dose treatment on day 8), and the intervals for the subsequent dose groups were determined based on the obtained tolerability and PK data). […]

[2H]C([2H])([2H])n1nc2c(c1C#N)-c1cnc(N)c(c1)O[C@H](C)c1cc(F)ccc1C(=O)N(C)C2 [compound A, (10R)-7-amino-12-fluoro-2-(methyl-d3)-10,16-dimethyl-15-oxo-10,15,16,17-tetrahydro-2H-8,4-(metheno)pyrazolo[4,3-h][2,5,11]benzoxadiazacyclotetradecine-3-carbonitrile]
DCR (95% CI) (5mg (N=1)): 1 (100) (2.5, 100.0) n (%)
BOR CR (10mg (N=1)): 0 n (%)
BOR NE (10mg (N=1)): 0 n (%)
BOR PD (10mg (N=1)): 0 n (%)
BOR PR (10mg (N=1)): 0 n (%)
BOR SD (10mg (N=1)): 1 (100) n (%)
Confirmed ORR (95% CI) (10mg (N=1)): 0 (0.0, 97.5) n (%)
DCR (95% CI) (10mg (N=1)): 1 (100) (2.5, 100.0) n (%)
BOR CR (20mg (N=1)): 0 n (%)
BOR NE (20mg (N=1)): 0 n (%)
BOR PD (20mg (N=1)): 0 n (%)
BOR PR (20mg (N=1)): 1 (100) n (%)
BOR SD (20mg (N=1)): 0 n (%)
Confirmed ORR (95% CI) (20mg (N=1)): 1 (100) (2.5, 100.0) n (%)
DCR (95% CI) (20mg (N=1)): 1 (100) (2.5, 100.0) n (%)
Median DOR (95% CI) (20mg (N=1)): 6.93 (-, -) months
Median TTR (range) (20mg (N=1)): 1.35 (1.35, 1.35) months
BOR CR (40mg (N=10)): 0 n (%)
BOR NE (40mg (N=10)): 2 (20.0) n (%)
BOR PD (40mg (N=10)): 2 (20.0) n (%)
BOR PR (40mg (N=10)): 1 (10.0) n (%)
BOR SD (40mg (N=10)): 5 (50.0) n (%)
Confirmed ORR (95% CI) (40mg (N=10)): 1 (10.0) (0.3, 44.5) n (%)
DCR (95% CI) (40mg (N=10)): 6 (60.0) (26.2, 87.8) n (%)
Median TTR (range) (40mg (N=10)): 2.73 (2.73, 2.73) months
BOR CR (60mg (N=12)): 0 n (%)
BOR NE (60mg (N=12)): 0 n (%)
BOR PD (60mg (N=12)): 1 (8.3) n (%)
BOR PR (60mg (N=12)): 6 (50.0) n (%)
BOR SD (60mg (N=12)): 5 (41.7) n (%)
Confirmed ORR (95% CI) (60mg (N=12)): 6 (50.0) (21.1, 78.9) n (%)
DCR (95% CI) (60mg (N=12)): 11 (91.7) (61.5, 99.8) n (%)
Median DOR (95% CI) (60mg (N=12)): 12.45 (2.79, -) months
Median TTR (range) (60mg (N=12)): 1.35 (1.35, 6.90) months
BOR CR (80mg (N=11)): 0 n (%)
BOR NE (80mg (N=11)): 1 (9.1) n (%)
BOR PD (80mg (N=11)): 1 (9.1) n (%)
BOR PR (80mg (N=11)): 4 (36.4) n (%)
BOR SD (80mg (N=11)): 5 (45.5) n (%)
Confirmed ORR (95% CI) (80mg (N=11)): 4 (36.4) (10.9, 69.2) n (%)
DCR (95% CI) (80mg (N=11)): 9 (81.8) (48.2, 97.7) n (%)
Median DOR (95% CI) (80mg (N=11)): 12.48 (7.98, -) months
Median TTR (range) (80mg (N=11)): 1.45 (1.35, 13.96) months
BOR CR (100mg (N=3)): 0 n (%)
BOR NE (100mg (N=3)): 0 n (%)
BOR PD (100mg (N=3)): 0 n (%)
BOR PR (100mg (N=3)): 2 (66.7) n (%)
BOR SD (100mg (N=3)): 1 (33.3) n (%)
Confirmed ORR (95% CI) (100mg (N=3)): 2 (66.7) (9.4, 99.2) n (%)
DCR (95% CI) (100mg (N=3)): 3 (100) (29.2, 100.0) n (%)
Median DOR (95% CI) (100mg (N=3)): 5.57 (4.17, -) months
Median TTR (range) (100mg (N=3)): 2.05 (1.35, 2.76) months
BOR CR (125mg (N=3)): 0 n (%)
BOR NE (125mg (N=3)): 0 n (%)
BOR PD (125mg (N=3)): 1 (33.3) n (%)
BOR PR (125mg (N=3)): 1 (33.3) n (%)
BOR SD (125mg (N=3)): 1 (33.3) n (%)
Confirmed ORR (95% CI) (125mg (N=3)): 1 (33.3) (0.8, 90.6) n (%)
DCR (95% CI) (125mg (N=3)): 2 (66.7) (9.4, 99.2) n (%)
Median DOR (95% CI) (125mg (N=3)): 9.53 (-, -) months
Median TTR (range) (125mg (N=3)): 1.38 (1.38, 1.38) months

Source: EP4810038A1, “METHOD FOR TREATING ALK-POSITIVE OR ROS1-POSITIVE NON-SMALL CELL LUNG CANCER” (Shenzhen TargetRx Co., Ltd., priority 2023, dated 2025)
